Each molecule was assayed on Hepatotoxicity (assay: Human drug-induced liver injury (DILI) modelling dataset from Ekins et al). Conditions: not given.
`CCC1(c2ccccc2)CCC(=O)NC1=O` (stereo not drawn) [GLUTETHIMIDE] was tested, and the Hepatotoxicity was “DILI positive (test set)”.
For `COC1=CC(=O)C[C@@H](C)[C@]12Oc1c(Cl)c(OC)cc(OC)c1C2=O` [GRISEOFULVIN], the Hepatotoxicity was “DILI positive (training set)”.
With `N=C(N)NCCN1CCCCCCC1.N=C(N)NCCN1CCCCCCC1.O=S(=O)(O)O` [GUANETHIDINE SULFATE] the Hepatotoxicity was “DILI positive (test set)”.
`Oc1c(Cl)cc(Cl)c(Cl)c1Cc1c(O)c(Cl)cc(Cl)c1Cl` [HEXACHLOROPHENE] was tested, and the Hepatotoxicity was “DILI positive (test set)”.
`CCN(CC)CCNc1ccc(CO)c2sc3ccccc3c(=O)c12` [HYCANTHONE] was tested, and the Hepatotoxicity was “DILI positive (training set)”.
With `NN` [HYDRAZINE] the Hepatotoxicity was “DILI positive (test set)”.
For `NS(=O)(=O)c1cc2c(cc1Cl)NCNS2(=O)=O` [HYDROCHLOROTHIAZIDE], the Hepatotoxicity was “DILI positive (training set)”.
In the case of `C[C@]12CCC(=O)C=C1CC[C@@H]1[C@@H]2[C@@H](O)C[C@@]2(C)[C@H]1CC[C@]2(O)C(=O)CO` [HYDROCORTISONE], the Hepatotoxicity is reported as “DILI negative (training set)”.
For `NC(=O)NO` [HYDROXYUREA], the Hepatotoxicity was “DILI positive (training set)”.
For `CC(C)Cc1ccc(CC(=O)O)cc1` [IBUFENAC], the Hepatotoxicity was “DILI positive (test set)”.
`CC(C)Cc1ccc(C(C)C(=O)O)cc1` (stereo not drawn) [IBUPROFEN] was tested, and the Hepatotoxicity was “DILI negative (test set)”.
In the case of `CC(=O)[C@]1(O)Cc2c(O)c3c(c(O)c2[C@@H](O[C@H]2C[C@H](N)[C@H](O)[C@H](C)O2)C1)C(=O)c1ccccc1C3=O.Cl` [IDARUBICIN HYDROCHLORIDE], the Hepatotoxicity is reported as “DILI negative (training set)”.
For `O=c1[nH]c(=O)n([C@H]2C[C@H](O)[C@@H](CO)O2)cc1I` [IDOXURIDINE], the Hepatotoxicity was “DILI positive (training set)”.
With `O=P1(NCCCl)OCCCN1CCCl` (stereo not drawn) [IFOSFAMIDE] the Hepatotoxicity was “DILI positive (test set)”.
With `CN(C)CCCN1c2ccccc2CCc2ccccc21.Cl` [IMIPRAMINE HYDROCHLORIDE] the Hepatotoxicity was “DILI positive (training set)”.
In the case of `Nc1cc(-c2ccncc2)c[nH]c1=O` [INAMRINONE], the Hepatotoxicity is reported as “DILI positive (training set)”.
`CC1(c2ccccc2)Cc2cc(OCC(=O)O)c(Cl)c(Cl)c2C1=O` (stereo not drawn) [INDACRINONE] was tested, and the Hepatotoxicity was “DILI positive (test set)”.
`CC(C)(C)NC(=O)[C@@H]1CN(Cc2cccnc2)CCN1C[C@@H](O)C[C@@H](Cc1ccccc1)C(=O)N[C@H]1c2ccccc2C[C@H]1O.O=S(=O)(O)O` [INDINAVIR SULFATE] was tested, and the Hepatotoxicity was “DILI negative (test set)”.
`COc1ccc2c(c1)c(CC(=O)O)c(C)n2C(=O)c1ccc(Cl)cc1` [INDOMETHACIN] was tested, and the Hepatotoxicity was “DILI positive (training set)”.
For `O[C@H]1[C@H](O)[C@@H](O)[C@H](O)[C@@H](O)[C@H]1O` [INOSITOL], the Hepatotoxicity was “DILI negative (test set)”.
For `C[C@H](O)C(=O)Nc1c(I)c(C(=O)NC(CO)CO)c(I)c(C(=O)NC(CO)CO)c1I` [IOPAMIDOL], the Hepatotoxicity was “DILI positive (test set)”.
For `CC(C)NNC(=O)c1ccncc1` [IPRONIAZID], the Hepatotoxicity was “DILI positive (test set)”.
With `CCCCC1=NC2(CCCC2)C(=O)N1Cc1ccc(-c2ccccc2-c2nnn[nH]2)cc1` [IRBESARTAN] the Hepatotoxicity was “DILI negative (test set)”.
With `Cc1cc(C(=O)NNCc2ccccc2)no1` [ISOCARBOXAZID] the Hepatotoxicity was “DILI negative (test set)”.
In the case of `NNC(=O)c1ccncc1` [ISONIAZID], the Hepatotoxicity is reported as “DILI positive (training set)”.
For `O=[N+]([O-])O[C@H]1CO[C@H]2[C@@H]1OC[C@H]2O[N+](=O)[O-]` [ISOSORBIDE DINITRATE], the Hepatotoxicity was “DILI negative (test set)”.
For `CC1=C(/C=C/C(C)=C/C=C/C(C)=C\C(=O)O)C(C)(C)CCC1` [ISOTRETINOIN], the Hepatotoxicity was “DILI positive (training set)”.
With `Cc1cc(NC(=O)C2=C(O)c3ccccc3S(=O)(=O)N2C)no1` [ISOXICAM] the Hepatotoxicity was “DILI negative (test set)”.
With `CC(COc1ccccc1)NC(C)C(O)c1ccc(O)cc1.Cl` (stereo not drawn) [ISOXSUPRINE HYDROCHLORIDE] the Hepatotoxicity was “DILI negative (training set)”.
For `CC(=O)N1CCN(c2ccc(OCC3COC(Cn4ccnc4)(c4ccc(Cl)cc4Cl)O3)cc2)CC1` (stereo not drawn) [KETOCONAZOLE], the Hepatotoxicity was “DILI positive (test set)”.
`CC(C(=O)O)c1cccc(C(=O)c2ccccc2)c1` (stereo not drawn) [KETOPROFEN] was tested, and the Hepatotoxicity was “DILI negative (test set)”.
For `NC(CO)(CO)CO.O=C(c1ccccc1)c1ccc2n1CCC2C(=O)O` (stereo not drawn) [KETOROLAC TROMETHAMINE], the Hepatotoxicity was “DILI positive (training set)”.
In the case of `CN1CCC(=C2c3ccccc3CC(=O)c3sccc32)CC1` [KETOTIFEN], the Hepatotoxicity is reported as “DILI negative (training set)”.
For `CC(CCc1ccccc1)NCC(O)c1ccc(O)c(C(N)=O)c1` (stereo not drawn) [LABETALOL], the Hepatotoxicity was “DILI positive (training set)”.
In the case of `Nc1ccn([C@@H]2CS[C@H](CO)O2)c(=O)n1` [LAMIVUDINE], the Hepatotoxicity is reported as “DILI negative (training set)”.
For `CS(=O)(=O)CCNCc1ccc(-c2ccc3ncnc(Nc4ccc(OCc5cccc(F)c5)c(Cl)c4)c3c2)o1` [LAPATINIB], the Hepatotoxicity was “DILI positive (test set)”.
`Cc1oncc1C(=O)Nc1ccc(C(F)(F)F)cc1` [LEFLUNOMIDE] was tested, and the Hepatotoxicity was “DILI positive (training set)”.
For `Nc1nc(=O)c2c([nH]1)NCC(CNc1ccc(C(=O)N[C@@H](CCC(=O)[O-])C(=O)[O-])cc1)N2C=O.[Ca+2]` (stereo partly drawn) [LEUCOVORIN CALCIUM], the Hepatotoxicity was “DILI negative (test set)”.
`N[C@@H](Cc1ccc(O)c(O)c1)C(=O)O` [LEVODOPA] was tested, and the Hepatotoxicity was “DILI negative (training set)”.
`C[C@H]1COc2c(N3CCN(C)CC3)c(F)cc3c(=O)c(C(=O)O)cn1c23.C[C@H]1COc2c(N3CCN(C)CC3)c(F)cc3c(=O)c(C(=O)O)cn1c23.O` [LEVOFLOXACIN] was tested, and the Hepatotoxicity was “DILI negative (training set)”.
In the case of `N[C@@H](Cc1cc(I)c(Oc2ccc(O)c(I)c2)c(I)c1)C(=O)O` [LIOTHYRONINE], the Hepatotoxicity is reported as “DILI negative (test set)”.
For `NCCCC[C@H](N[C@@H](CCc1ccccc1)C(=O)O)C(=O)N1CCC[C@H]1C(=O)O` [LISINOPRIL ANHYDROUS], the Hepatotoxicity was “DILI positive (training set)”.
In the case of `C[C@H](CCC(=O)O)[C@H]1CC[C@H]2[C@@H]3CC[C@@H]4C[C@H](O)CC[C@]4(C)[C@H]3CC[C@]12C` [LITHOCHOLIC ACID], the Hepatotoxicity is reported as “DILI positive (training set)”.
With `CN(C)C(=O)C(CCN1CCC(O)(c2ccc(Cl)cc2)CC1)(c1ccccc1)c1ccccc1.Cl` [LOPERAMIDE HYDROCHLORIDE] the Hepatotoxicity was “DILI negative (training set)”.
`N[C@@H](C(=O)N[C@@H]1C(=O)N2C(C(=O)O)=C(Cl)CC[C@H]12)c1ccccc1` [LORACARBEF ANHYDROUS] was tested, and the Hepatotoxicity was “DILI negative (test set)”.
For `CCCCc1nc(Cl)c(CO)n1Cc1ccc(-c2ccccc2-c2nn[nH]n2)cc1` [LOSARTAN], the Hepatotoxicity was “DILI positive (test set)”.
For `Cc1ccc(Nc2c(F)cccc2Cl)c(CC(=O)O)c1` [LUMIRACOXIB], the Hepatotoxicity was “DILI positive (test set)”.
In the case of `O=C(O)/C=C\C(=O)O` [MALEIC ACID], the Hepatotoxicity is reported as “DILI positive (training set)”.
`COC(=O)Nc1nc2ccc(C(=O)c3ccccc3)cc2[nH]1` [MEBENDAZOLE] was tested, and the Hepatotoxicity was “DILI positive (training set)”.
With `Cc1ccc(Cl)c(Nc2ccccc2C(=O)[O-])c1Cl.O.[Na+]` [MECLOFENAMATE SODIUM] the Hepatotoxicity was “DILI positive (training set)”.
For `CC(=O)O[C@]1(C(C)=O)CC[C@H]2[C@@H]3C[C@H](C)C4=CC(=O)CC[C@]4(C)[C@H]3CC[C@@]21C` [MEDROXYPROGESTERONE ACETATE], the Hepatotoxicity was “DILI negative (training set)”.
`COc1ccc2[nH]cc(CCNC(C)=O)c2c1` [MELATONIN] was tested, and the Hepatotoxicity was “DILI negative (training set)”.
In the case of `Cc1cnc(NC(=O)C2=C(O)c3ccccc3S(=O)(=O)N2C)s1` [MELOXICAM], the Hepatotoxicity is reported as “DILI negative (test set)”.
With `CC12CC3CC(C)(C1)CC(N)(C3)C2` [MEMANTINE] the Hepatotoxicity was “DILI negative (training set)”.
With `CC1=CC(=O)c2ccccc2C1=O` [MENADIONE] the Hepatotoxicity was “DILI positive (test set)”.
For `CCC1(c2ccccc2)C(=O)NC(=O)N(C)C1=O` (stereo not drawn) [MEPHOBARBITAL], the Hepatotoxicity was “DILI positive (test set)”.
With `CCCC(C)(COC(N)=O)COC(N)=O` [MEPROBAMATE] the Hepatotoxicity was “DILI positive (test set)”.
In the case of `C#C[C@]1(O)CC[C@H]2[C@@H]3CCc4cc(OC)ccc4[C@H]3CC[C@@]21C` [MESTRANOL], the Hepatotoxicity is reported as “DILI positive (test set)”.
With `CC(=O)Nc1cccc(O)c1` [METACETAMOL] the Hepatotoxicity was “DILI negative (training set)”.
`CC(C)NCC(O)c1cc(O)cc(O)c1.CC(C)NCC(O)c1cc(O)cc(O)c1.O=S(=O)(O)O` (stereo not drawn) [METAPROTERENOL SULFATE] was tested, and the Hepatotoxicity was “DILI positive (training set)”.
With `C=C1c2cccc(O)c2C(=O)C2=C(O)[C@]3(O)C(=O)C(C(N)=O)=C(O)[C@@H](N(C)C)[C@@H]3[C@@H](O)[C@H]12.Cl` [METHACYCLINE HYDROCHLORIDE] the Hepatotoxicity was “DILI positive (training set)”.
With `CN(Cc1cnc2nc(N)nc(N)c2n1)c1ccc(C(=O)N[C@@H](CCC(=O)O)C(=O)O)cc1` [METHOTREXATE] the Hepatotoxicity was “DILI positive (training set)”.
`COc1ccc(OC)c(C(O)C(C)N)c1.Cl` (stereo not drawn) [METHOXAMINE HYDROCHLORIDE] was tested, and the Hepatotoxicity was “DILI negative (training set)”.
`COCC(=O)O` [METHOXYACETIC ACID] was tested, and the Hepatotoxicity was “DILI positive (test set)”.
With `C[C@](N)(Cc1ccc(O)c(O)c1)C(=O)O` [METHYLDOPA] the Hepatotoxicity was “DILI positive (test set)”.
`CC[C@@H](CO)NC(=O)[C@@H]1C=C2c3cccc4[nH]cc(c34)C[C@H]2N(C)C1.O=C(O)/C=C\C(=O)O` [METHYLERGONOVINE MALEATE] was tested, and the Hepatotoxicity was “DILI negative (training set)”.

Same assay, conditions: Liver
With `Cc1c(F)c(N2CCNC(C)C2)cc2c1c(=O)c(C(=O)O)cn2C1CC1` (stereo not drawn) [GREPAFLOXACIN] the Hepatotoxicity was “DILI positive (test set)”.
With `CC(C)NCC(O)c1ccc(O)c(O)c1.Cl` (stereo not drawn) [ISOPROTERENOL HYDROCHLORIDE] the Hepatotoxicity was “DILI negative (training set)”.
For `CCN(CC)CC(=O)Nc1c(C)cccc1C` [LIDOCAINE], the Hepatotoxicity was “DILI negative (training set)”.
`CNCCCC12CCC(c3ccccc31)c1ccccc12` [MAPROTILINE] was tested, and the Hepatotoxicity was “DILI negative (training set)”.
In the case of `Cc1cccc(Nc2ccccc2C(=O)O)c1C` [MEFENAMIC ACID], the Hepatotoxicity is reported as “DILI positive (training set)”.
With `CN1CCCCC1CCN1c2ccccc2Sc2ccc([S+](C)[O-])cc21.O=S(=O)(O)c1ccccc1` (stereo not drawn) [MESORIDAZINE BESYLATE] the Hepatotoxicity was “DILI positive (training set)”.
`CN(C)C(=N)N=C(N)N` [METFORMIN] was tested, and the Hepatotoxicity was “DILI negative (test set)”.
